“And” between values parts separate entries of the source, which are not always exact repeats. Identical values can stand only once.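 Briefly, cells in 96-well plates were exposed to five compound concentrations for 48 h, and endpoints were estimated by linear interpolation. At the GI50, growth is halved. The concentration for full growth arrest is given as TGI.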
Tests used:
Experiment in all cases: NCI tumour cell line growth inhibition, 48 h
SK-OV-3 ovarian = test system: SK-OV-3 ovarian
HT29 colon = test system: HT29 colon
MOLT-4 leukemia = test system: MOLT-4 leukemia
A549 NSCLC = test system: A549 NSCLC
TK-10 renal = test system: TK-10 renal
SK-MEL-28 melanoma = test system: SK-MEL-28 melanoma
CCRF-CEM leukemia = test system: CCRF-CEM leukemia
HCC-2998 colon = test system: HCC-2998 colon
NCI-H226 lung = test system: NCI-H226 lung
MDA-MB-231 breast = test system: MDA-MB-231 breast

| SMILES | TGI (SK-OV-3 ovarian) | TGI (HT29 colon) | TGI (MOLT-4 leukemia) | TGI (A549 NSCLC) | TGI (TK-10 renal) [µM] | TGI (SK-MEL-28 melanoma) | TGI (CCRF-CEM leukemia) [µM] | TGI (HCC-2998 colon) | TGI (NCI-H226 lung) | TGI (MDA-MB-231 breast) | GI50 (SK-OV-3 ovarian) | GI50 (HT29 colon) | GI50 (MOLT-4 leukemia) | GI50 (A549 NSCLC) | GI50 (TK-10 renal) | GI50 (SK-MEL-28 melanoma) | GI50 (CCRF-CEM leukemia) | GI50 (HCC-2998 colon) | GI50 (NCI-H226 lung) | GI50 (MDA-MB-231 breast) |
| --- | --- | --- | --- | --- | --- | --- | --- | --- | --- | --- | --- | --- | --- | --- | --- | --- | --- | --- | --- | --- |
| CCN1CCN=c2c3cc(OC)ccc3n3cnc4ccc1c2c43 | 1.79 µM | 1.01 µM | 1.57 µM | 0.67 µM | 6.66 | 1.83 µM | 0.747 | 0.94 µM | 0.718 µM | 0.814 µM |  |  |  |  |  |  |  |  |  |  |
| C=CC(=O)N1CCC(C2CCNc3c(C(N)=O)c(-c4ccc(Oc5ccccc5)cc4)nn32)CC1 (stereo not drawn) | 5.33 µM | 55.8 µM | 31 µM | > 100 µM | 11.6 | 45.1 µM | > 100 | 28.6 µM | 69.4 µM | 92.5 µM | 0.572 µM | 16.6 µM | 5.36 µM | 21.2 µM | 1.29 µM | 18.7 µM | 24.8 µM | 14.8 µM | 11.1 µM | 19.2 µM |
| Oc1cc(O)c2c(c1)OC(c1ccc(O)c(O)c1)C(OC1(c3cc(O)c(O)c(O)c3)Oc3cc(O)cc(O)c3C(O)C1O)C2 (stereo not drawn) | > 100 µM | 41 µM | 52.8 µM | > 71.7 µM | > 100 | > 68.5 µM | 43.7 | > 100 µM | 50.9 µM | 45.8 µM |  |  |  |  |  |  |  |  |  |  |
| N#Cc1c(-c2ccc(F)cc2)c(-c2ccc(F)cc2)nn(CCO)c1=O | > 49.6 µM | > 22.9 µM | > 100 µM | > 100 µM | > 100 | > 100 µM | 24.9 | 28.4 µM | > 4.64 µM | > 71 µM |  |  |  |  |  |  |  |  |  |  |
| O=c1c2ccccc2sc2cccc(NCCCN3CCN(CCCNc4cccc5sc6ccccc6c(=O)c45)CC3)c12 | > 100 µM | > 100 µM | > 100 µM | > 100 µM | > 100 | > 100 µM | > 100 | > 100 µM | > 100 µM | > 100 µM |  |  |  |  |  |  |  |  |  |  |
| O=C(CC(O)(C(F)(F)F)C(F)(F)F)c1cc(CC(=O)C(O)(C(F)(F)F)C(F)(F)F)cc(CC(=O)C(O)(C(F)(F)F)C(F)(F)F)c1 | 9.55 µM | 4.28 µM | > 10 µM | 5.62 µM | 8.36 | > 5.88 µM | > 10 | 4.19 µM | > 6.85 µM | 3.3 µM |  |  |  |  |  |  |  |  |  |  |
| COc1cccc2c1C(=O)c1c(O)c3c(c(O)c1C2=O)CC(O)(/C(C)=N/NC(=O)CCC(=O)N/N=C(\C)C1(O)Cc2c(O)c4c(c(O)c2C(OC2CC(N)C(O)C(C)O2)C1)C(=O)c1c(OC)cccc1C4=O)CC3OC1CC(N)C(O)C(C)O1 (stereo not drawn) | 2.4 µM | > 10.5 µM |  | 1.81 µM | 6.69 | 1.35 µM | 7.17 | 1.46 µM | 1.39 µM | > 50 µM | 0.475 µM | 0.333 µM | 0.142 µM | 0.414 µM | 0.574 µM | 0.371 µM | 0.113 µM | 0.508 µM | 0.324 µM | 1.17 µM |
| Cc1nc2ccccc2nc1-c1ccc(N=[N+]([O-])c2ccc(-c3nc4ccccc4nc3C)cc2)cc1 | > 82.5 µM | > 100 µM | > 100 µM | > 100 µM | 50.5 | > 100 µM | > 100 | > 100 µM | > 100 µM | > 80.2 µM |  |  |  |  |  |  |  |  |  |  |
| Nc1nccc2c1ccn2-c1ccc(NC(=O)c2ccc(N3CCOCC3)c(C(F)(F)F)c2)cc1 | 23.5 µM | 1.26 µM |  | 15.3 µM | 9.75 | 14.1 µM | > 100 | 29.1 µM | 20 µM | 1.47 µM | 2.44 µM | 0.322 µM | 0.318 µM | 1.39 µM | 1.52 µM | 1.17 µM | 0.452 µM | 2.98 µM | 5.62 µM | 0.346 µM |
| Cn1cnc([N+](=O)[O-])c1S(=O)(=O)Oc1ccccc1 | > 100 µM | 8.21 µM | 18.9 µM | > 100 µM | 3.81 | 32.2 µM | > 100 | 40.7 µM | 60 µM | 47.9 µM | 97.5 µM | 3.14 µM | 3.65 µM | 38.1 µM | 1.99 µM | 8.61 µM | 3.75 µM | 19.3 µM | 19.8 µM | 15.5 µM |
| NS(=O)(=O)c1ccc(N(/C=C/C(=O)C(F)(F)F)CC(=O)c2ccc(Cl)cc2)cc1 | > 100 µM | > 100 µM | 89.9 µM | > 100 µM | 87.8 | > 100 µM | 44.5 | > 100 µM | 94.1 µM | > 100 µM | 69 µM | 35.6 µM | 32.9 µM | 49.7 µM | 29.7 µM | > 100 µM | 20.4 µM | 55.7 µM | 28.9 µM | 36.3 µM |
| C[C@H]1Oc2cc(cnc2N)-c2c(nn(C)c2C#N)CN(C)C(=O)c2ccc(F)cc21 | > 87 µM | > 100 µM | > 100 µM | > 100 µM | > 100 | > 100 µM | > 100 | > 100 µM | > 100 µM | > 100 µM | 22.1 µM | 5.76 µM | > 93.7 µM | 25.4 µM | 36.5 µM | 50.3 µM | > 100 µM | > 89 µM | 40.8 µM | 18.1 µM |
| O=C(c1ccc(Cl)cc1)c1cnc(Nc2ccccc2Cl)s1 | 52 µM | > 100 µM | > 100 µM | 60.3 µM | 34.9 | 23.4 µM | > 100 | > 87.8 µM | > 64.3 µM | > 100 µM |  |  |  |  |  |  |  |  |  |  |
| CC1(C)OCCn2c1nc1c(N3CCOCC3)nc(-c3cnc(N)nc3)nc12 | 0.495 µM | > 100 µM | > 100 µM | 4.4 µM | 0.676 | 4.08 µM | > 100 | > 100 µM | 8.75 µM | > 89.2 µM | 0.102 µM | 0.23 µM | 0.33 µM | 0.283 µM | 0.109 µM | 0.231 µM | 1.06 µM | 0.412 µM | 0.227 µM | 0.457 µM |
| O=C(c1c(F)ccc(NS(=O)(=O)N2CC[C@@H](F)C2)c1F)c1c[nH]c2ncc(-c3cnc(C4CC4)nc3)cc12 | > 10 µM and 21.4 µM | > 10 µM and 12.4 µM | > 10 µM and 35.5 µM | > 10 µM and 40.3 µM | > 66.9 | 0.194 µM and 0.599 µM | > 100 | > 10 µM and 29.8 µM | > 10 µM and 64.6 µM | > 10 µM and 46.8 µM | 3.39 µM and 3.66 µM | 0.0124 µM and 0.0118 µM | 6.66 µM and 5.12 µM | 5.85 µM and 7.09 µM | 3.53 µM and 8.03 µM | 0.00375 µM and < 0.01 µM | 6.52 µM and 7.64 µM | > 10 µM and 12.5 µM | 4.81 µM and 9.14 µM | 2.88 µM and 3.47 µM |

Reference: PubChem BioAssay (NCI)
